According to US10328052B2, “D-proline derivatives as SAP depleting agent” (GlaxoSmithKline Intellectual Property Development Limited, priority 2015, dated 2019):
Read-outs that look alike come from different tables or passages of the source. Each block holds one compound with its values, some of them ahead of it.

Legend:
CYP3A4 = target: T1, CYP3A4 (Homo sapiens, UniProt P08684); experiment: Cytochrome p450 inhibition, bactosomes, fluorogenic substrates 7BQ and DEF; format: in vitro ADME; settings: for IC50: bactosomes
T1 construct: purchased Cypex; host or cells: bactosomes (bacterial membranes)
Experimental: The assay was designed to evaluate inhibition on cytochrome P450 (CYP) 3A4, 2C9, 2C19, 1A2 and 2D6 enzymes from bactosomes source using fluorogenic substrates. Compound (compound of Formula (I) or Comparator Compound) was dissolved in methanol at 1.65 mM. Daughter solutions were prepared in methanol at 660, 264, 106, 42, 17, 6.8, 2.7, 1.1 and 0.43 μM. NADPH cofactor was prepared with Glucose-6-phosphate (7.8 mg), Glucose-6-phosphate dehydrogenase (6 units), NADP (1.7 mg) per 1 mL in NaHCO3 2%. Substrate Preparation was as Follows: • 7-Methoxy-4-triFluoromethyl Coumarin-3-Acetic acid ethyl ester (FCA): 12.5 mM in acetonitrile • EthoxyResorufin (ER): 0.05 mM in acetonitrile • 4-MethylaminoMethyl-7-Methoxy Coumarin (MMC): 2.5 mM in methanol • 3-Butyryl-7Methoxy Coumarin (BMC): 2.5 mM in DMSO • 7-BenzyloxyQuinoline (7BQ): 2.5 mM in acetonitrile • DiEthoxyFluorescein (DEF): 0.1 mM in acetonitrile Bactosomes (Cypex source) at the concentration of 10 mg of protein per mL were diluted in phosphate buffer 50 mM pH7.4: • 0.33 mL of bactosomes CYP2C9 with 23.8 mL of buffer and 0.11 mL of FCA • 0.33 mL of bactosomes CYP1A2 with 23.6 mL of buffer and 0.275 mL of ER • 0.33 mL of bactosomes CYP2D6 with 23.8 mL of buffer and 0.11 mL of MMC • 0.33 mL of bactosomes CYP2C19 with 23.8 mL of buffer and 0.11 mL of BMC • 0.33 mL of bactosomes CYP3[…] with 23.6 mL of buffer and 0.275 mL of 7BQ • 0.33 mL of bactosomes CYP3[…] with 23.6 mL of buffer and 0.275 mL of DEF Pre-Incubation consisted in mixing 5 μL of compound solution with 220 μL diluted bactosomes and warming it at 37° C. for 10 min. Incubation was started with the addition of 25 μL of NADPH. Then fluorescence of substrate metabolite was read in a SAFIRE instrument (from Tecan) for 5 min: • FCA (2C9): Excitation at 410 nm and Emission at 510 nm • ER (1A2): Excitation at 530 nm and Emission at 590 nm • MMC (2D6): Excitation at 410 nm and Emission at 485 nm • BMC (2C19): Excitation at 410 nm and Emission at 465 nm • 7BQ (3A4H): Excitation at 410 nm and Emission at 530 nm • DEF (3A4L): Excitation at 485 nm and Emission at 530 nm Plotting of inhibition of substrate production against compound concentration allowed the determination of IC50 values.

SAP = target: T2, SAP (Homo sapiens, UniProt P02743); settings: cited from earlier work
T2 construct: reduces the CSF SAP concentration from 2-30 μg/L to <0.1 μg/L in patients with Alzheimer's disease; host or cells: patients' plasma and cerebrospinal fluid (in vivo)

circulating SAP = target: T3, circulating SAP (Homo sapiens, UniProt P02743); settings: systemic amyloidosis patients, for as long as the drug was administered; cited from earlier work
T3 construct: host or cells: patients' plasma (in vivo)

[1] = very low and variable; cited from earlier work
CYP2C9 = target: T4, CYP2C9 (Homo sapiens, UniProt P11712); experiment: Cytochrome p450 inhibition, bactosomes, fluorogenic substrate FCA; format: in vitro ADME
T4 construct: purchased Cypex; host or cells: bactosomes (bacterial membranes)
Experimental: (§1) The assay was designed to evaluate inhibition on cytochrome P450 (CYP) 3A4, 2C9, 2C19, 1A2 and 2D6 enzymes from bactosomes source using fluorogenic substrates. Compound (compound of Formula (I) or Comparator Compound) was dissolved in methanol at 1.65 mM. Daughter solutions were prepared in methanol at 660, 264, 106, 42, 17, 6.8, 2.7, 1.1 and 0.43 μM. NADPH cofactor was prepared with Glucose-6-phosphate (7.8 mg), Glucose-6-phosphate dehydrogenase (6 units), NADP (1.7 mg) per 1 mL in NaHCO3 2%. […]

CYP2C19 = target: T5, CYP2C19 (Homo sapiens, UniProt P33261); experiment: Cytochrome p450 inhibition, bactosomes, fluorogenic substrate BMC; format: in vitro ADME
T5 construct: purchased Cypex; host or cells: bactosomes (bacterial membranes)
Experimental: as §1

CYP2D6 = target: T6, CYP2D6 (Homo sapiens, UniProt P10635); experiment: Cytochrome p450 inhibition, bactosomes, fluorogenic substrate MMC; format: in vitro ADME
T6 construct: purchased Cypex; host or cells: bactosomes (bacterial membranes)
Experimental: as §1

CYP1A2 = target: T7, CYP1A2 (Homo sapiens, UniProt P05177); experiment: Cytochrome p450 inhibition, bactosomes, fluorogenic substrate ER; format: in vitro ADME
T7 construct: purchased Cypex; host or cells: bactosomes (bacterial membranes)
T7 sequence (P05177 1-516): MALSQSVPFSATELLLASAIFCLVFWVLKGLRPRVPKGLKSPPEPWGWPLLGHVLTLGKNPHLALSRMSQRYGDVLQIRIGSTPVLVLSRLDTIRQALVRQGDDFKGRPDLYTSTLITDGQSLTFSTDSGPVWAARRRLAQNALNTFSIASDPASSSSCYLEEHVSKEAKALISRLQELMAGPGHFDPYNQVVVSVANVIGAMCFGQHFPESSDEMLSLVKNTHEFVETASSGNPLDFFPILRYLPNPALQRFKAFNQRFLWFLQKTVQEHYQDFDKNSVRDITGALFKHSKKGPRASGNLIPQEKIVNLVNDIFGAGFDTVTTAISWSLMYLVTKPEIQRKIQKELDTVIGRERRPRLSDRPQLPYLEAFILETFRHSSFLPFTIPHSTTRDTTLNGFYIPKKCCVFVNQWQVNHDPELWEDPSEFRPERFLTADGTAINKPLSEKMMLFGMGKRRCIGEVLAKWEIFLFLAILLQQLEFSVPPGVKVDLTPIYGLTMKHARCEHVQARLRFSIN
Experimental: as §1

[2] = Solubility in aqueous media; format: physicochemical; settings: thermodynamic from solid, 4 hour timepoint, read-out: Solubility (mg/mL) at 4 hour timepoint
Experimental: A known quantity of the compound of Formula (I) was weighed into a suitable vessel (e.g. a screw capped clear glass vial) and a known volume of the required media added (e.g. Simulated Gastric Fluid pH 1.6 [SGF], Simulated Fed State Intestinal Fluid pH 6.5 [FeSSIF], Simulated Fasted State Intestinal Fluid pH 6.5 [FaSSIF], Water [Purified Water], or Britton-Robinson buffer). The compound was wetted with the media by vortex mixing for 30 seconds to 1 minute. The sample was then visually observed to ensure that undissolved solid remained present. The sample was transferred to a gentle mixer (such as a roller mixer) and allowed to agitate until the desired time point was reached. At appropriate times the sample was reassessed visually. If all the solid had dissolved the solubility was recorded as >x mg/mL where x is the known weight used divided by the volume added. If undissolved solid remained a portion of the sample was taken and centrifuged to remove the solid leaving a clear supernatant. The supernatant was diluted volumetrically with a suitable diluent to provide an analytical sample of suitable concentration for analysis. This diluted sample was then analysed by a suitable method such as HPLC against a standard(s) of known concentration. The solubility of the compound can then be calculated using a knowledge of the concentration of the standard, the relative response (e.g. peak areas) of the standard and the analytical sample described, and the dilution of the analytical sample.

[3] = Physical stability (hydrolysis) in phosphate buffer at various pHs; format: physicochemical
Experimental: The assay was designed for determining physical stability of compound in buffer at various pHs. Compound of Formula (I) was dissolved in DMSO at 1 mg/mL. Phosphate buffer (PBS) was prepared by mixing K2HPO4 50 mM and KH2PO4 50 mM solutions to obtain 4 buffers at pH 6.0, 7.0, 7.5, 8.0.
Stability studies were conducted at room temperature, and were started by the addition of 8 μL of DMSO solution to 792 μL of PBS 50 mM at pH 6.0, 7.0, 7.5 or 8.0 (1% DMSO). 75 μl of mixture was taken at 0, 1, 2, 4 and 24 h and 225 μL acetonitrile containing internal standard was added.
2 μL of samples were injected into the liquid chromatography system and eluted with a Ascentis C18 column (50×2.1 mm id, 2.7 μm) and with 0.1% formic acid in water (A) and 0.1% formic acid in acetonitrile (B), using the following elution 2 min gradient: 5 to 95% B over 1.2 min, 95% B over 0.6 min and 0.1 min for re-equilibrate column, at 0.5 mL/min at 50° C.
Samples were analysed by Mass Spectrometry with an electrospray source and in positive mode and with following mass transitions: • Compound of Formula (I): 625 to 368 • Monoester of CPHPC: 483 to 226 • CPHPC: 341 to 226

[4] = Intestinal microsomal stability; format: in vitro ADME; settings: up to 30 minutes, 37° C.
Experimental: The assay was designed for determining stability of compound in microsomal matrix. Compound (Compound of Formula (I)) was dissolved in DMSO at 1 mg/mL. Daughter solution was prepared in methanol/water (50/50) at 30.3 ng/mL. Microsomes (from Xenotech) were diluted at 0.625 mg proteins per mL in phosphate buffer 50 mM pH 7.4.
Pre-Incubation consisted of warming microsomal solution 395 μL with 100 μL NaHCO3 (2%) at 37° C. for 7 min. Incubation was started with the addition of 5 μL of daughter solution. 50 μL aliquots of mixture were taken at 0, 3, 6, 12 and 30 min and quenched with 150 μL acetonitrile containing internal standard.
After 10 min centrifugation at 4000 rpm, 2 μL of samples were injected into the liquid chromatography system and eluted on a Ascentis C18 column (50×2.1 mm id, 2.7 μm) with 0.1% formic acid in water (A) and 0.1% formic acid in acetonitrile (B), using the following 2 minute elution gradient: 5 to 95% B over 1.2 min, 95% B over 0.6 min and 0.1 min for re-equilibrate column, at 0.5 mL/min at 50° C.
Samples were analysed by Mass Spectrometry with an electrospray source, in positive mode and with following mass transitions: • Compound of Formula (I): 625 to 368 • Monoester of CPHPC: 483 to 226 • CPHPC: 341 to 226
Controls were made to calculate percentage of disappearance of parent but also appearance of suspected metabolite, i.e. monoester and diacidic form.

[5] = substrate DEF, read-out: IC50 CYP3A4 (DEF)

T1 sequence (P08684 whole entry): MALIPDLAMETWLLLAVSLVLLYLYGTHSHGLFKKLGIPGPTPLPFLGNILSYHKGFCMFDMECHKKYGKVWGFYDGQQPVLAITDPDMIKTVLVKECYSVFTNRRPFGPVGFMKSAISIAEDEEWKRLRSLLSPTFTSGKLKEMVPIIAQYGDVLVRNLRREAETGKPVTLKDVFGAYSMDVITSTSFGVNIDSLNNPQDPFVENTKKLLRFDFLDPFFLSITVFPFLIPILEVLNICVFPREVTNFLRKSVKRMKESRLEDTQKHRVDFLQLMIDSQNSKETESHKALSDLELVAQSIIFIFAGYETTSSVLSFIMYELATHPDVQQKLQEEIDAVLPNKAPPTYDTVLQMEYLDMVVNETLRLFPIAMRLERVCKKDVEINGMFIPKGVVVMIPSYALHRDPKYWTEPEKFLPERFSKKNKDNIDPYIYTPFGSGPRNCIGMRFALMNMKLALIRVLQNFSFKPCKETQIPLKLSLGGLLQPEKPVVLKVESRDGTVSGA
T6 sequence (P10635 whole entry): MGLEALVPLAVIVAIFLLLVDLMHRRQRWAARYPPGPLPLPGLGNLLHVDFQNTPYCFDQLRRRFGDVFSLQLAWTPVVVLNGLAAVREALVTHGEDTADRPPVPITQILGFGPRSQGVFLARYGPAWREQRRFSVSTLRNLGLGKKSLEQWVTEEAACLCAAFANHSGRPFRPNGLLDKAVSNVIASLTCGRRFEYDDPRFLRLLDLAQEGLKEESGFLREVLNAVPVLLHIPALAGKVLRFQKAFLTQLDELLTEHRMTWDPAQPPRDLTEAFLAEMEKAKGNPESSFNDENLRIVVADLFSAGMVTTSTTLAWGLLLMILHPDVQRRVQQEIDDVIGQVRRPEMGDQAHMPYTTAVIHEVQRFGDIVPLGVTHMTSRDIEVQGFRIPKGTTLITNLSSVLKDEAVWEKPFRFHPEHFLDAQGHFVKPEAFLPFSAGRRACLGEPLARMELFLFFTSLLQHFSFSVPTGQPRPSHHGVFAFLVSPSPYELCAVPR
T2 sequence (P02743 20-223): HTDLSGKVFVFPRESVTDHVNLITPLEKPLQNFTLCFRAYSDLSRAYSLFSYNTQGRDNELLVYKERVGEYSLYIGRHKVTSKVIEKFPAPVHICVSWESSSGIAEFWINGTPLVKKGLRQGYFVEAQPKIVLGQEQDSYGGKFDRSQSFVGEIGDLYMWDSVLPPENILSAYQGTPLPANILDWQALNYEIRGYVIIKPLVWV
T5 sequence (P33261 whole entry): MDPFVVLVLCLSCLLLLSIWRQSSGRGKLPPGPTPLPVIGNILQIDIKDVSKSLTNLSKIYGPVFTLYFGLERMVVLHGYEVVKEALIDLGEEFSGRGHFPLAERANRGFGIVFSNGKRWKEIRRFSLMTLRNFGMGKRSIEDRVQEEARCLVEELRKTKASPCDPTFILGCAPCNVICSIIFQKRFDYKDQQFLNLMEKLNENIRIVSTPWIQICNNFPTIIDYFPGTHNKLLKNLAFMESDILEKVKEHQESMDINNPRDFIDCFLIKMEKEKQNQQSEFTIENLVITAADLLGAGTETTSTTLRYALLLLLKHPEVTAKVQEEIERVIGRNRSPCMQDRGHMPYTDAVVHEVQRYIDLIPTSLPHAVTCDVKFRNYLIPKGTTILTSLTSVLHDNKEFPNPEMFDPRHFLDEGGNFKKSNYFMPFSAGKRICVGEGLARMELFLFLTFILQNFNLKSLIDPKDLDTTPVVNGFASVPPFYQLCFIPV
T4 sequence (P11712 whole entry): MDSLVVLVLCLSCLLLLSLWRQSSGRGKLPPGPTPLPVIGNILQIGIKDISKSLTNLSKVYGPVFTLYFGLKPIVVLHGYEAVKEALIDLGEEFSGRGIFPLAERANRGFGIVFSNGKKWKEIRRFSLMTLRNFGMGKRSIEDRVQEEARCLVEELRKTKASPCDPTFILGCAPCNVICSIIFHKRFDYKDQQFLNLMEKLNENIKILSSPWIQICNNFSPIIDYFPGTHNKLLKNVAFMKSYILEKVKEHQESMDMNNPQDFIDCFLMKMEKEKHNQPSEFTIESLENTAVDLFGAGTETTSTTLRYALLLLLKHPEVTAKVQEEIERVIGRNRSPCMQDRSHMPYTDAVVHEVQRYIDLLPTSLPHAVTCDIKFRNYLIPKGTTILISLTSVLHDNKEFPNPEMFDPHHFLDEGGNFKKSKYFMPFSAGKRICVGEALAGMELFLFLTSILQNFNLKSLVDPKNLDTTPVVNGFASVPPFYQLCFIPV
T3 sequence (P02743 20-223): as the sequence (P02743 20-223) above

inhibition of CYP3A4-7BQ (in words) (CYP3A4; substrate 7BQ): significant inhibition
inhibition of CYP3A4-DEF (in words) (CYP3A4; substrate DEF): significant inhibition
Compound: CC(OC(=O)[C@H]1CCCN1C(=O)CCCCC(=O)N1CCC[C@@H]1C(=O)OC(C)OC(=O)C(C)(C)C)OC(=O)C(C)(C)C (stereo partly drawn) [Comparator Compound, (2R,2′R)-bis(1-(pivaloyloxy)ethyl) 1,1′-adipoylbis(pyrrolidine-2-carboxylate), reference compound]

Compound: O=C(O)[C@H]1CCCN1C(=O)CCCCC(=O)N1CCC[C@@H]1C(=O)O [CPHPC, (R)-1-[6-[(R)-2-carboxy-pyrrolidin-1-yl]-6-oxo-hexanoyl]pyrrolidine-2-carboxylic acid]
CSF SAP concentration after depletion by CPHPC (SAP; CSF, patients with Alzheimer's disease, from 2-30 μg/L): < 0.1 µg/L
plasma SAP after depletion by CPHPC (SAP; plasma, from the normal 20-50 mg/L): < 0.1 mg/L
depletion of circulating SAP (in words) (circulating SAP): almost complete depletion
oral bioavailability [1]: 3-5%

IC50 (CYP3A4; [5]): > 33 µM
IC50 (CYP2C9): > 33 µM
IC50 (CYP2C19): > 33 µM
IC50 (CYP2D6): > 33 µM
IC50 (CYP1A2): > 33 µM
Compound: O=C(OCOC(=O)[C@H]1CCCN1C(=O)CCCCC(=O)N1CCC[C@@H]1C(=O)O)C1CCOCC1 [mono-ester derivative, (R)-1-(6-oxo-6-((R)-2-((((tetrahydro-2H-pyran-4-carbonyl)oxy)methoxy)carbonyl)pyrrolidin-1-yl)hexanoyl)pyrrolidine-2-carboxylic acid]

IC50 (CYP3A4; substrate 7BQ, read-out: IC50 CYP3A4 (7BQ)): > 33 µM
IC50 (CYP3A4; [5]): > 33 µM
IC50 (CYP2C9): > 33 µM
solubility at 4 h ([2]; FaSSIF (Simulated Fasted State Intestinal Fluid pH 6.5)): 1.04 mg/mL
solubility at 4 h ([2]; FeSSIF (Simulated Fed State Intestinal Fluid pH 6.5)): 0.599 mg/mL
solubility at 4 h ([2]; SGF (Simulated Gastric Fluid pH 1.6)): 0.577 mg/mL
solubility at 4 h ([2]; water (purified water), Water): 0.574 mg/mL
IC50 (CYP2C19): > 33 µM
IC50 (CYP2D6): > 33 µM
IC50 (CYP1A2): > 33 µM
compound hydrolysed after 24 h ([3]; acidic environment (pH less than 7.0), PBS, room temperature, 24 h): Less than 20%
rate of hydrolysis in human intestinal microsomes (in words) [4]: low rate of hydrolysis
Compound: O=C(OCOC(=O)[C@H]1CCCN1C(=O)CCCCC(=O)N1CCC[C@@H]1C(=O)OCOC(=O)C1CCOCC1)C1CCOCC1 [Compound of Formula (I), (2R,2′R)-bis(((tetrahydro-2H-pyran-4-carbonyl)oxy)methyl) 1,1′-adipoylbis(pyrrolidine-2-carboxylate)]
sensitivity to hydrolysis at different pH (in words) ([3]; PBS pH6 to pH8, room temperature): less sensitive to hydrolysis for a pH below 7.5
